Test results: paper PMC3914206

What was measured:
Assay type in all cases: binding
Conditions in all cases: Compound Concentration 10 µM
[1] = target: T1, panel of 442 kinases (Homo sapiens, UniProt Q00535)
T1 construct: purchased KINOMEscan
Excerpt: (§1) We assessed the selectivity of members of this scaffold using the KINOMEscan methodology across a near comprehensive panel of 442 kinases [[18,27]].

[2] = target: T2, panel of 442 kinases (Homo sapiens, UniProt P06241)
T2 construct: purchased KINOMEscan
T2 sequence (P06241 whole entry): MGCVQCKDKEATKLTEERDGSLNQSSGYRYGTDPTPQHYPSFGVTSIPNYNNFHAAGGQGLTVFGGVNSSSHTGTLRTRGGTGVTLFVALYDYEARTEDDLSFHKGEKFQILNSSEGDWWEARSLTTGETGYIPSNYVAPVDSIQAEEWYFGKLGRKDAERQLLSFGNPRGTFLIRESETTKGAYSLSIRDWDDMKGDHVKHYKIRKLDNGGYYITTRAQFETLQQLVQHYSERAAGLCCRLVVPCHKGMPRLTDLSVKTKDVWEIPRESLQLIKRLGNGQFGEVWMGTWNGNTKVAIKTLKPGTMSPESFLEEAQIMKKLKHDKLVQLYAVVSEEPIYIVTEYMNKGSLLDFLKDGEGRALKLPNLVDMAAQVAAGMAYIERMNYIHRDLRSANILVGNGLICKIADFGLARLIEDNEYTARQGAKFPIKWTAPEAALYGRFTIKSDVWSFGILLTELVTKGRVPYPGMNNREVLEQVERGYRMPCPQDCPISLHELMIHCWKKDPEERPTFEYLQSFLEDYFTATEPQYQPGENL
Excerpt: as §1

[3] = target: T3, panel of 442 kinases (Homo sapiens, UniProt O76039)
T3 construct: purchased KINOMEscan
T3 sequence (O76039 1-960): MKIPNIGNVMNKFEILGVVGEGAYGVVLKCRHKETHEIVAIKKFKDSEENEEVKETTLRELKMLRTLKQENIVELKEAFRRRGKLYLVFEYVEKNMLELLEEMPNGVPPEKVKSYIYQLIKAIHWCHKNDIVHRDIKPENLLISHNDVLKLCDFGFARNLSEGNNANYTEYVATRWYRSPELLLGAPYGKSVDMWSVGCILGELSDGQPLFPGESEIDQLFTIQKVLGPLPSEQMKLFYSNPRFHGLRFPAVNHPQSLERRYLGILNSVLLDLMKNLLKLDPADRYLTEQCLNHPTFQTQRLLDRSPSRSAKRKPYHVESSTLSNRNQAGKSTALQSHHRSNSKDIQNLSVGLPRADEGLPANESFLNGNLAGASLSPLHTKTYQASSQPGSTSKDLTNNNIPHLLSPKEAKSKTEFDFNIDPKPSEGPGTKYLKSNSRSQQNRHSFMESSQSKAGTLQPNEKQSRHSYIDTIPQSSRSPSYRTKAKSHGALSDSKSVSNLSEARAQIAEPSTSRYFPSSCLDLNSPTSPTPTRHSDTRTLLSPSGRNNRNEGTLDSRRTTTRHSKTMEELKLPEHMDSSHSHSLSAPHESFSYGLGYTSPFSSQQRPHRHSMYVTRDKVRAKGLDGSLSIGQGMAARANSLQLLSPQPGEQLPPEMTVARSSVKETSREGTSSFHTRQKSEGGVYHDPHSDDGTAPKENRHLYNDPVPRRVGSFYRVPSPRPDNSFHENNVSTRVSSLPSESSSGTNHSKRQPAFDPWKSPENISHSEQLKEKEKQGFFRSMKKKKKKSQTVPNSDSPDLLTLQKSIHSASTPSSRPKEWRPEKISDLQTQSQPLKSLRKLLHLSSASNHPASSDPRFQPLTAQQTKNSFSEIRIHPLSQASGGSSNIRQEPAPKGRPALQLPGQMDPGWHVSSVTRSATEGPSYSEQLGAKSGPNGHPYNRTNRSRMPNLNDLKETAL
Excerpt: as §1

T1 sequence (Q00535 whole entry): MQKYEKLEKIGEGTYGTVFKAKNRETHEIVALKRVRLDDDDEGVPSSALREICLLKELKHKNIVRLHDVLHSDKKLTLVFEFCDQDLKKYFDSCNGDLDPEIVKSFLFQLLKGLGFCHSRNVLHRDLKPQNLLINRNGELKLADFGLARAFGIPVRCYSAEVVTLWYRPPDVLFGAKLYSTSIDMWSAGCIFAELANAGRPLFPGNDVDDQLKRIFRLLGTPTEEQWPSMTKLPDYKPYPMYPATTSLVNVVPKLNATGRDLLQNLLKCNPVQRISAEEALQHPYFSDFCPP

Question: How did the “KINOMEscan: CDK5” value [1] turn out when COc1cc(C(=O)N2CCC(N3CCN(C)CC3)CC2)ccc1Nc1ncc2c(n1)N(C1CCCC1)c1ccccc1C(=O)N2C [Compound 25, 11-cyclopentyl-2-((2-methoxy-4-(4-(4-methylpiperazin-1-yl)piperidine-1-carbonyl)phenyl)amino)-5-methyl-5H-benzo[e]pyrimido[5,4-b][1,4]diazepin-6(11H)-one] was run?
Answer: 94

Question: And the “KINOMEscan: FYN” value [2]?
Answer: 86

Question: And the “KINOMEscan: CDKL5” value [3]?
Answer: 93

Question: COc1cc(C(=O)N2CCC(N3CCN(C)CC3)CC2)ccc1Nc1ncc2c(n1)N1CCc3cccc(c31)C(=O)N2C [Compound 24] was tested. Which “KINOMEscan: FYN” value [2] did it give?
Answer: 82

Question: How did the “KINOMEscan: CDK5” value [1] turn out when COc1cc(C(=O)N2CCC(N3CCN(C)CC3)CC2)ccc1Nc1ncc2c(n1)N(C)c1ccccc1C(=O)N2C [15 (LRRK2-IN-1)] was run?
Answer: 81

Question: What about the “KINOMEscan: FYN” value [2] of the same compound?
Answer: 100

Question: What about the “KINOMEscan: CDKL5” value [3] of the same compound?
Answer: 100

Question: For CCOc1cc(C(=O)N2CCC(N3CCN(C)CC3)CC2)ccc1Nc1ncc2c(n1)N(C1CCCC1)c1ccccc1C(=O)N2C [Compound 26], which “KINOMEscan: CDK5” value [1] is on record?
Answer: 100

Question: What about the “KINOMEscan: FYN” value [2] of the same compound?
Answer: 78

Question: And the “KINOMEscan: CDKL5” value [3]?
Answer: 100
